Data on twelve compounds can be found in patent US20080293772A1, “SALTS OF PICOTAMIDE” (priority 2007, published 2008).

Structures can show the parent of a compound that is named as a salt. Where two headings read alike, the source gives them in different places.

A short description of data set [1]: Picotamide salt stability, degradation determined by HPLC. The method, then:
If a spontaneous crystallization occurs after the salt formation, the solid is isolated by filtration.
Column: Phenomenex Hypersil C18-BDS, 4.6×150 mm, 5 μm, flow 1 ml/min, 25° C., detection at 254 nm. Ammonium acetate buffer 10 mM, pH 9, containing 15% methanol. After 17 min, the percentage of methanol is increased to 80%. The sample is dissolved in methanol/water 1:1.
Salts were formed in THF.

For data set [2] the following is noted: man, after oral administration; cited from earlier work.
The nature of data set [3]: Picotamide stability under acidic conditions (HPLC content). Format: physicochemical. Particulars: hydrochloric acid 1 M, three days. The procedure:
The sample is dissolved in methanol/water 1:1.
Picotamide is dissolved in hydrochloric acid 1 M and stored at room temperature and 50° C. for three days.

As for `COc1ccc(C(=O)NCc2cccnc2)cc1C(=O)NCc1cccnc1` [hydrochloride], the Degradation in data set [1] turned out to be 0.6%.

Turning to fumarate, the Degradation in data set [1] (salts formed in THF, HPLC) is listed as 6.7%.

For citrate, the Degradation in data set [1] (salts formed in THF, HPLC) is 0.2%.

For the compound `COc1ccc(C(=O)NCc2cccnc2)cc1C(=O)NCc1cccnc1` [anhydrous picotamide], the “time needed to reach the maximum inhibitory effect” value in data set [2] is 8 h.

`Br` [hydrobromide]: the Degradation in data set [1] turned out to be 35%.

Take `CC(=O)O` [Acetate]: the Degradation in data set [1] was 0.6%.

`COc1ccc(C(=O)NCc2cccnc2)cc1C(=O)NCc1cccnc1` [hydrochloride (anhydrous)]: the Degradation in data set [1] was found to be 0.0%.

With `COc1ccc(C(=O)NCc2cccnc2)cc1C(=O)NCc1cccnc1` [Picotamide, N,N′-bis-(3-picolyl)-4-methoxyisophthalamide], the picotamide content in data set [3] (50° C.) is 98.1%; in data set [3] (room temperature), 99.2%.

As to oxalate, the Degradation in data set [1] (salts formed in THF, HPLC) was determined as 0.4%.

For the compound `O=S(=O)(O)O` [sulfate], the Degradation in data set [1] turned out to be 0.1%.

maleate: the Degradation in data set [1] (salts formed in THF, HPLC) was 11.5%.

On to tartrate [reference compound], for which the Degradation in data set [1] (salts formed in THF, HPLC) was 0.1%.
